Assay results from patent US20260297060A1, “COMPOUNDS FOR THE DEGRADATION OF MUTANT BRAF” (C4 THERAPEUTICS, INC., priority 2023, published 2026).
Like-named read-outs stand apart in the source and are kept apart here.

Assay: Pharmacokinetics in female BALB/c nude mice bearing A375 xenografts, 1 day dosing (PK and PD study): plasma, tumor and brain concentrations, AUC
Assay type: in vivo
From the text: The concentrations of Dabrafenib, Compound 26 and Compound 141 in the treatment of female BALB/c nude mice bearing A375 xenografts are shown in Table 62-Table 72 and FIG. 52-FIG. 73.

[1] = 0.75 mg/kg p.o. BID × 1 day, post 2nd dose, 48 h, BQL: below the lower limit of quantitation
[2] = 1 mg/kg p.o. TID × 1 day, post 3rd dose, 48 h, BQL: below the lower limit of quantitation
[3] = Compound 141, 1.5 mg/kg p.o. BID × 1 day, post 2nd dose, 36 h, BQL: below the lower limit of quantitation
[4] = Compound 141, 1.5 mg/kg p.o. BID × 1 day, post 2nd dose, 48 h, BQL: below the lower limit of quantitation
[5] = mouse, brain, po, 0.75 mg/kg, 0.75 mg/kg p.o. BID × 1 day, post 2nd dose, read-out: Mean Concentration in Brain ± SEM
[6] = mouse, brain, po, 1 mg/kg, 1 mg/kg p.o. TID × 1 day, post 3rd dose, read-out: Mean Concentration in Brain ± SEM
[7] = mouse, brain, po, 1.5 mg/kg, Compound 141, 1.5 mg/kg p.o. BID × 1 day, post 2nd dose, read-out: Mean Concentration in Brain ± SEM
[8] = mouse, brain, po, 3 mg/kg, 3 mg/kg p.o. QD × 1 day, read-out: Mean Concentration in Brain ± SEM
[9] = mouse, brain, po, 5 mg/kg, 5 mg/kg p.o. BID × 1 day, post 2nd dose, read-out: Mean Concentration in Brain ± SEM
[10] = mouse, plasma, po, 0.75 mg/kg, 0.75 mg/kg p.o. BID × 1 day, post 1st dose, read-out: Mean Concentration in Plasma ± SEM
[11] = mouse, plasma, po, 0.75 mg/kg, 0.75 mg/kg p.o. BID × 1 day, post 2nd dose, read-out: Mean Concentration in Plasma ± SEM
[12] = mouse, plasma, po, 1 mg/kg, 1 mg/kg p.o. TID × 1 day, post 1st dose, read-out: Mean Concentration in Plasma ± SEM
[13] = mouse, plasma, po, 1 mg/kg, 1 mg/kg p.o. TID × 1 day, post 2nd dose, read-out: Mean Concentration in Plasma ± SEM
[14] = mouse, plasma, po, 1 mg/kg, 1 mg/kg p.o. TID × 1 day, post 3rd dose, read-out: Mean Concentration in Plasma ± SEM

CCN(C)S(=O)(=O)Nc1ccc(F)c(Oc2ccc3ncn(C4CC5(CCN(C6CC7(C6)CN(c6cc8c(cc6F)c(N6CCC(=O)NC6=O)nn8C)C7)CC5)C4)c(=O)c3c2)c1C#N (stereo not shown) [Compound 141, 6-[2-cyano-3-[[ethyl(methyl)sulfamoyl]amino]-6-fluoro-phenoxy]-3-[7-[2-[3-(2,4-dioxohexahydropyrimidin-1-yl)-5-fluoro-1-methyl-indazol-6-yl]-2-azaspiro[3.3]heptan-6-yl]-7-azaspiro[3.5]nonan-2-yl]-4-oxo-quinazoline]
Mean Concentration in Brain ± SEM (0.75 mg/kg p.o. BID × 1 day, post 2nd dose, 24 h, BQL: below the lower limit of quantitation): BQL^a | Mean Concentration in Brain ± SEM [1]: BQL | Mean Concentration in Tumor ± SEM [1]: BQL | Mean Concentration in Brain ± SEM (1 mg/kg p.o. TID × 1 day, post 3rd dose, 24 h, BQL: below the lower limit of quantitation): BQL^a | Mean Concentration in Brain ± SEM [2]: BQL | Mean Concentration in Plasma ± SEM [2]: BQL | Mean Concentration in Plasma ± SEM (3 mg/kg p.o. QD × 1 day, 48 h, BQL: below the lower limit of quantitation): BQL^a | Mean Concentration in Brain ± SEM (5 mg/kg p.o. BID × 1 day, post 2nd dose, 24 h, BQL: below the lower limit of quantitation): BQL^a | Mean Concentration in Brain ± SEM (Compound 141, 1.5 mg/kg p.o. BID × 1 day, post 2nd dose, 24 h, BQL: below the lower limit of quantitation): BQL^a | Mean Concentration in Brain ± SEM [3]: BQL | Mean Concentration in Plasma ± SEM [3]: BQL | Mean Concentration in Brain ± SEM [4]: BQL | Mean Concentration in Plasma ± SEM [4]: BQL | concentration at 1 h [5]: 26.7 ± 2.39 ng/g | concentration at 4 h [5]: 10.2 ± 1.3 ng/g | concentration at 10 h [5]: 6.61 ± 2 ng/g | concentration at 1 h [6]: 22 ± 3.26 ng/g | concentration at 4 h [6]: 17.9 ± 3.94 ng/g | concentration at 10 h [6]: 14.6 ± 3.36 ng/g | concentration at 0.25 h [7]: 11.2 ± 1.24 ng/g | concentration at 0.5 h [7]: 25.5 ± 2.96 ng/g | concentration at 1 h [7]: 44.1 ± 5.96 ng/g | concentration at 2 h [7]: 39.3 ± 0.318 ng/g | concentration at 4 h [7]: 23.5 ± 4.95 ng/g | concentration at 10 h [7]: 3.51 ± 1.17 ng/g | concentration at 1 h [8]: 70.5 ± 4.29 ng/g | concentration at 4 h [8]: 37.6 ± 9.11 ng/g | concentration at 10 h [8]: 11 ± 1.97 ng/g | concentration at 24 h (mouse, brain, po, 3 mg/kg, 3 mg/kg p.o. QD × 1 day, 24 h, read-out: Mean Concentration in Brain ± SEM): 3.31 ng/g | concentration at 48 h (mouse, brain, po, 3 mg/kg, 3 mg/kg p.o. QD × 1 day, 48 h, read-out: Mean Concentration in Brain ± SEM): 1.79 ng/g | concentration at 1 h [9]: 126 ± 6.12 ng/g | concentration at 4 h [9]: 52.9 ± 12.8 ng/g | concentration at 10 h [9]: 13.1 ± 2.79 ng/g | concentration at 48 h (mouse, brain, po, 5 mg/kg, 5 mg/kg p.o. BID × 1 day, post 2nd dose, 48 h, read-out: Mean Concentration in Brain ± SEM): 4 ng/g | concentration at 0.25 h [10]: 340 ± 19 ng/mL | concentration at 0.5 h [10]: 832 ± 61.1 ng/mL | concentration at 1 h [10]: 1070 ± 94.7 ng/mL | concentration at 2 h [10]: 972 ± 13.5 ng/mL | concentration at 4 h [10]: 491 ± 20.2 ng/mL | concentration at 8 h [10]: 66.3 ± 5.93 ng/mL | concentration at 12 h (mouse, plasma, po, 0.75 mg/kg, 0.75 mg/kg p.o. BID × 1 day, post 1st dose, 12 h, read-out: Mean Concentration in Plasma ± SEM): 26.5 ± 4.92 ng/mL | concentration at 0.25 h [11]: 297 ± 13.2 ng/mL | concentration at 0.5 h [11]: 502 ± 84.1 ng/mL | concentration at 1 h [11]: 778 ± 59.4 ng/mL | concentration at 2 h [11]: 818 ± 118 ng/mL | concentration at 4 h [11]: 247 ± 24.5 ng/mL | concentration at 10 h [11]: 111 ± 18.4 ng/mL | concentration at 24 h (mouse, plasma, po, 0.75 mg/kg, 0.75 mg/kg p.o. BID × 1 day, post 2nd dose, 24 h, read-out: Mean Concentration in Plasma ± SEM): 1.09 ± 0.203 ng/mL | concentration at 36 h (mouse, plasma, po, 0.75 mg/kg, 0.75 mg/kg p.o. BID × 1 day, post 2nd dose, 36 h, read-out: Mean Concentration in Plasma ± SEM): 0.764 ng/mL | concentration at 48 h (mouse, plasma, po, 0.75 mg/kg, 0.75 mg/kg p.o. BID × 1 day, post 2nd dose, 48 h, read-out: Mean Concentration in Plasma ± SEM): 4.96 ng/mL | concentration at 0.25 h [12]: 438 ± 25.4 ng/mL | concentration at 0.5 h [12]: 836 ± 10.8 ng/mL | concentration at 1 h [12]: 1130 ± 180 ng/mL | concentration at 2 h [12]: 1000 ± 55.2 ng/mL | concentration at 4 h [12]: 699 ± 129 ng/mL | concentration at 8 h [12]: 242 ± 30.4 ng/mL | concentration at 0.25 h [13]: 334 ± 54.7 ng/mL | concentration at 2 h [13]: 879 ± 74.6 ng/mL | concentration at 8 h [13]: 218 ± 16.3 ng/mL | concentration at 0.25 h [14]: 346 ± 65.5 ng/mL | concentration at 0.5 h [14]: 694 ± 54.4 ng/mL | concentration at 1 h [14]: 664 ± 72 ng/mL | concentration at 2 h [14]: 1600 ± 124 ng/mL | concentration at 4 h [14]: 563 ± 173 ng/mL | concentration at 10 h [14]: 415 ± 74.4 ng/mL | concentration at 24 h (mouse, plasma, po, 1 mg/kg, 1 mg/kg p.o. TID × 1 day, post 3rd dose, 24 h, read-out: Mean Concentration in Plasma ± SEM): 10.5 ± 5.67 ng/mL | concentration at 36 h (mouse, plasma, po, 1 mg/kg, 1 mg/kg p.o. TID × 1 day, post 3rd dose, 36 h, read-out: Mean Concentration in Plasma ± SEM): 3.2 ± 0.392 ng/mL
